Laboratory results as given in patent EP2518054A1, “AMIDE COMPOUND” (Takeda Pharmaceutical Company Limited, priority 2009, dated 2011).

biological target: T1, human GPR52 (Homo sapiens, UniProt Q9Y2T5); experiment: Increase of intracellular cAMP concentration in human GPR52-expressing CHO cell (AlphaScreen cAMP assay); assay type: cell-based; details: CHO, 1µM test compound; 100% = cAMP with 1 µM Reference Example 79, 0% = DMSO; human GPR52-expressing CHO(dhfr-) cells, 37°C, 30 min; read-out: GPR52 agonist activity (%)
T1 construct: expressed in transfected cells; host or cells: CHO(dhfr-) cells
T1 sequence (Q9Y2T5 whole entry): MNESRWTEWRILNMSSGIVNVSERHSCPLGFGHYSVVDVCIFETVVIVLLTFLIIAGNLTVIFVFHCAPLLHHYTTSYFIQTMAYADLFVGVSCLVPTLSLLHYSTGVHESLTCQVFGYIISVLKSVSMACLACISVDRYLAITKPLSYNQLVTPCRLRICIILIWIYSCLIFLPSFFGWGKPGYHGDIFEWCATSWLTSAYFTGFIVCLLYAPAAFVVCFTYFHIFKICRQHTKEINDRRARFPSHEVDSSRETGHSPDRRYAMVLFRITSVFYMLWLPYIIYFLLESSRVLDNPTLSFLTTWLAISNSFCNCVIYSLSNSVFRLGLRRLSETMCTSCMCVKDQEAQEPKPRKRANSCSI
Procedure: Increase of intracellular cAMP concentration in human GPR52-expressing CHO cell
Using OptiPlate-384 (PerkinElmer Inc.), 1×10^4 human GPR52-expressing CHO(dhfr-) cells were incubated together with various concentration(10^-5µM - 10µm) of a test compound in an assay buffer (30 µL, HBSS (containing Ca^2+ and Mg^2+), 0.5% BSA, 100 µM IBMX, 100 µM Ro20-1724, 5 mM HEPES (pH 7.55)) at 37°C for 30 min. Thereafter, according to the protocol of AlphaScreen CAMP Assay Kit (PerkinElmer Inc.), the intracellular cAMP concentration was measured by EnVision (PerkinElmer Inc.). The GPR52 agonist activity was calculated, assuming the intracellular cAMP concentration in the presence of […] N-(2-hydroxyethyl)-3-[2-[3-(trifluoromethyl)benzyl]-1-benzofuran-4-yl]benzamide (Reference Example 79) to be 100% and assuming the intracellular cAMP concentration when DMSO was added instead of the test compound to be 0%.

| Compound | activity at 1 µM [%] |
| --- | --- |
| Cc1nn(-c2ccc(F)c3cc(Cc4cc(F)cc(Cl)c4)sc23)c(CO)c1C(=O)NCCO [Example 90, 1-[2-(3-chloro-5-fluorobenzyl)-4-fluoro-1-benzothiophen-7-yl]-N-(2-hydroxyethyl)-5-(hydroxymethyl)-3-methyl-1H-pyrazole-4-carboxamide] | 104 |
| Cc1nn(-c2ccc(F)c3cc(Cc4cc(F)cc(Cl)c4)sc23)c(CO)c1C(N)=O [Example 91, 1-[2-(3-chloro-5-fluorobenzyl)-4-fluoro-1-benzothiophen-7-yl]-5-(hydroxymethyl)-3-methyl-1H-pyrazole-4-carboxamide] | 99 |
| Cc1cccc(Cc2cc3cccc(-n4nc(C)c(C(=O)NCC(N)=O)c4C)c3s2)c1 [Example 93, N-(2-amino-2-oxoethyl)-3,5-dimethyl-1-[2-(3-methylbenzyl)-1-benzothiophen-7-yl]-1H-pyrazole-4-carboxamide] | 70 |
| Cc1cccc(Cc2cc3cccc(-n4nc(C)c(C(=O)NCCO)c4C)c3s2)c1 [Example 94, N-(2-hydroxyethyl)-3,5-dimethyl-1-[2-(3-methylbenzyl)-1-benzothiophen-7-yl]-1H-pyrazole-4-carboxamide] | 96 |
| COc1cc(Cc2cc3cccc(-n4nc(C)c(C(=O)NCC(N)=O)c4C)c3s2)ccc1F [Example 96, N-(2-amino-2-oxoethyl)-1-[2-(4-fluoro-3-methoxybenzyl)-1-benzothiophen-7-yl]-3,5-dimethyl-1H-pyrazole-4-carboxamide] | 84 |
| COc1cc(Cc2cc3cccc(-n4nc(C)c(C(=O)NCCO)c4C)c3s2)ccc1F [Example 97, 1-[2-(4-fluoro-3-methoxybenzyl)-1-benzothiophen-7-yl]-N-(2-hydroxyethyl)-3,5-dimethyl-1H-pyrazole-4-carboxamide] | 94 |
| Cc1nn(-c2cccc3cc(Cc4cc(F)cc(F)c4)sc23)c(C)c1C(N)=O [Example 100, 1-[2-(3,5-difluorobenzyl)-1-benzothiophen-7-yl]-3,5-dimethyl-1H-pyrazole-4-carboxamide] | 104 |
| Cc1nn(-c2cccc3cc(Cc4cc(F)cc(F)c4)sc23)c(C)c1C(=O)NCC(N)=O [Example 101, N-(2-amino-2-oxoethyl)-1-[2-(3,5-difluorobenzyl)-1-benzothiophen-7-yl]-3,5-dimethyl-1H-pyrazole-4-carboxamide] | 96 |
| Cc1nn(-c2cccc3sc(Cc4cccc(C(F)(F)F)c4)cc23)c(C)c1C(N)=O [Example 104, 3,5-dimethyl-1-[2-[3-(trifluoromethyl)benzyl]-1-benzothiophen-4-yl]-1H-pyrazole-4-carboxamide] | 93 |

Further lines, results first:

| activity at 1 µM [%] | Compound |
| --- | --- |
| 95 | Cc1cccc(Cc2cc3cccc(-n4nc(C)c(C(N)=O)c4C)c3s2)c1 [Example 95, 3,5-dimethyl-1-[2-(3-methylbenzyl)-1-benzothiophen-7-yl]-1H-pyrazole-4-carboxamide] |
| 98 | COc1cc(Cc2cc3cccc(-n4nc(C)c(C(N)=O)c4C)c3s2)ccc1F [Example 98, 1-[2-(4-fluoro-3-methoxybenzyl)-1-benzothiophen-7-yl]-3,5-dimethyl-1H-pyrazole-4-carboxamide] |
| 99 | Cc1nn(-c2cccc3cc(Cc4cc(F)cc(F)c4)sc23)c(C)c1C(=O)NCCO [Example 99, 1-[2-(3,5-difluorobenzyl)-1-benzothiophen-7-yl]-N-(2-hydroxyethyl)-3,5-dimethyl-1H-pyrazole-4-carboxamide] |
| 99 | CNC(=O)c1c(C)nn(-c2ccc(F)c3cc(Cc4cccc(C(F)(F)F)c4)sc23)c1C [Example 102, 1-[4-fluoro-2-[3-(trifluoromethyl)benzyl]-1-benzothiophen-7-yl]-N,3,5-trimethyl-1H-pyrazole-4-carboxamide] |
| 97 | Cc1nn(-c2ccc(F)c3cc(Cc4cccc(C(F)(F)F)c4)sc23)c(C)c1C(=O)NC1CC1 [Example 103, N-cyclopropyl-1-[4-fluoro-2-[3-(trifluoromethyl)benzyl]-1-benzothiophen-7-yl]-3,5-dimethyl-1 H-pyrazole-4-carboxamide] |

same assay, conditions: concentration of the test compound at which it shows 50% activity; human GPR52-expressing CHO(dhfr-) cells; read-out: GPR52 agonist activity EC50

| EC50 [nM] | Compound |
| --- | --- |
| 14 | Cc1nn(-c2ccc(F)c3cc(Cc4cc(F)cc(Cl)c4)sc23)c(CO)c1C(=O)NCCO [Example 90, 1-[2-(3-chloro-5-fluorobenzyl)-4-fluoro-1-benzothiophen-7-yl]-N-(2-hydroxyethyl)-5-(hydroxymethyl)-3-methyl-1H-pyrazole-4-carboxamide] |
| 13 | Cc1nn(-c2cccc3cc(Cc4cc(F)cc(F)c4)sc23)c(C)c1C(=O)NCCO [Example 99, 1-[2-(3,5-difluorobenzyl)-1-benzothiophen-7-yl]-N-(2-hydroxyethyl)-3,5-dimethyl-1H-pyrazole-4-carboxamide] |
